In US5684034A, “1H-indole-3-acetamide sPLA2 inhibitors” (Eli Lilly and Company, priority 1995, dated 1997):
“And” between values parts separate entries of the source, which are not always exact repeats. Equal entries are not always repeated. Structures can show the parent of a compound that is named as a salt. Where two headings read alike, the source gives them in different places.

Molecular target: T1, recombinant human secreted phospholipase A2 (Homo sapiens, UniProt P14555)
T1 sequence (P14555 21-144): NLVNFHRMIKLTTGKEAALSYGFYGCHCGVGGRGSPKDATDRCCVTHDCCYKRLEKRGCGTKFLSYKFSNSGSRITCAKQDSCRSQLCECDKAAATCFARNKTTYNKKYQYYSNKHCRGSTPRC
Assay: Human secreted phospholipase A2 inhibition test (chromogenic assay, diheptanoyl thio-PC substrate)
Type: biochemical
Conditions: pH 7.5, 40° C., 30 minutes, 405 nm
Procedure: The following chromogenic assay procedure was used to identify and evaluate inhibitors of recombinant human secreted phospholipase A2. The assay described herein has been adapted for high volume screening using 96 well microtiter plates.
A measured volume of racetic dipheptanoyl thio PC supplied in chloroform at a concentration of 100 mg/ml is taken to dryness and redissolved in 10 millimolar TRITON X-100™ nonionic detergent aqueous solution. Reaction Buffer is added to the solution, then DTNB to give the Reaction Mixture.
The reaction mixture thus obtained contains 1 mM diheptanoly thio-PC substrate, 0.29 mm Triton X-100™ detergent, and 0.12 mm DTMB in a buffered aqueous solution at pH 7.5.
1. Add 0.2 ml reaction mixture to all wells;
2. Add 10 ul test compound (or solvent blank) to appropriate wells, mix 20 seconds:
3. Add 50 nanograms of sPLA2 (10 microliters) to appropriate wells;
4. incubate plate at 40° C. for 30 minutes;
All compounds were tested in triplicate. […] Each sample was titrated in triplicate and result values were averaged for plotting and calculation of IC50 values. […] Each IC50 value was determined three times.

[1] = read-out: Inhibition of human secreted PLA2 IC50 ± mean deviation (3-5 tests)
[2] = Inhibition of human secreted PLA2 IC50 ± mean deviation (3-5 tests)

| Compound | IC50 [1] | IC50 [2] |
| --- | --- | --- |
| CCc1c(CC(N)=O)c2cc(OCCCC(N)=O)ccc2n1Cc1ccccc1 [Example 60, 5-(4-Amino-4-oxobutoxy)-2-ethyl-1-(phenylmethyl)-1H-indole-3-acetamide] | 0.104 ± 0.017 µM | – |
| CCc1c(CC(N)=O)c2cc(OCCCP(=O)(OC)OC)ccc2n1Cc1ccccc1 [Example 61, [3-[[3-(2-Amino-2-oxoethyl)-2-ethyl-1-(phenylmethyl)-1H-indol-5-yl]oxy]propyl]phosphonic acid dimethyl ester] | – | 0.27 µM |
| CCc1c(CC(N)=O)c2cc(OCCCP(=O)(O)OC)ccc2n1Cc1ccccc1 [Example 63, [3-[[3-(2-Amino-2-oxoethyl)-2-ethyl-1-(phenylmethyl)-1H-indol-5-yl]oxy]propyl]phosphonic acid monomethyl ester] | – | 0.039 ± 0.005 µM |
| Cc1c(CC(N)=O)c2c(OCC(=O)NN)cccc2n1Cc1ccccc1 [Example 65, 4-(2-Hydrazino-2-oxoethoxy)-2-methyl-1-(phenylmethyl)-1H-indole-3-acetamide] | 0.36 ± 0.13 µM | – |
| Cc1c(CC(N)=O)c2c(OCC(N)=O)cccc2n1Cc1ccccc1 [Example 66, 4-(2-Amino-2-oxoethoxy)-2-methyl-1-(phenylmethyl)-1H-indole-3-acetamide] | 0.36 ± 0.07 µM | – |
| CCOP(=O)(COc1cccc2c1c(CC(N)=O)c(C)n2Cc1ccccc1)OCC [Example 67] | – | 1.68 µM |
| COC(=O)COc1cccc2c1c(CC(N)=O)c(C)n2Cc1cccc(Cl)c1 [Example 71] | 2.37 ± 0.79 µM | – |
| Cc1c(CC(N)=O)c2c(OCC(=O)O)cccc2n1Cc1cccc(Cl)c1 [Example 72, [[3-(2-Amino-2-oxoethyl)-1-[(3-chlorophenyl)methyl]-2-methyl-1H-indol-4-yl]oxy]methyl]acetic acid sodium salt] | – | 0.05 ± 0.15 µM |
| Cc1c(CC(N)=O)c2c(OCC(=O)O)cccc2n1Cc1ccccc1-c1ccccc1 [Example 73, [[3-(2-Amino-2-oxoethyl)-1-([1,1'-biphenyl]-2-ylmethyl)-2-methyl-1H-indol-4-yl]oxy]acetic acid sodium salt] | 0.01 ± 0.001 µM | – |
| CCc1c(CC(N)=O)c2c(OCC(=O)O)cccc2n1Cc1cccc(Cl)c1 [Example 75, 2-[[3-(2-Amino-2-oxoethyl)-1-[(3-chlorophenyl)methyl]-2-ethyl-1H-indol-4-yl]oxy]acetic acid] | 0.039 ± 0.004 µM | – |
| NC(=O)Cc1cn(Cc2ccccc2)c2cccc(OCC(=O)O)c12 [Example 76, 2-[[3-(2-Amino-2-oxoethyl)-1-(phenylmethyl)-1H-indol-4-yl]oxy]acetic acid] | 0.337 µM and 0.305 µM | – |
| NC(=O)Cc1c(C2CC2)n(Cc2ccccc2)c2ccc(O)cc12 [Example 78, 2-Cyclopropyl-5-hydroxy-1-(phenylmethyl)-1H-indole-3-acetamide] | 0.118 ± 0.011 µM | – |
| NC(=O)Cc1cn(Cc2ccccc2)c2ccc(OCP(=O)(O)O)cc12 [Example 81, [[3-(2-Amino-2-oxoethyl)-1-(phenylmethyl)-1H-indol-5-yl]oxy]methyl]phosphonic acid disodium salt] | – | 3.8 µM and 3.6 µM |
| NC(=O)Cc1cn(Cc2ccccc2)c2ccc(O)cc12 [Example 82, 5-Hydroxy-1-(phenylmethyl)-1H-indole-3-acetamide] | 3.68 ± 0.19 µM | – |
| COP(=O)(CCCOc1ccc2c(c1)c(CC(N)=O)c(Br)n2Cc1ccccc1)OC [Example 86, [3-[[3-(2-Amino-2-oxoethyl)-2-bromo-1-(phenylmethyl)-1H-indol-5-yl]oxy]propane]phosphonic acid dimethyl ester] | – | 0.42 ± 0.21 µM |
| COP(=O)(O)CCCOc1ccc2c(c1)c(CC(N)=O)c(Br)n2Cc1ccccc1 [Example 87] | – | 0.072 ± 0.017 µM |
| COc1cc2c(CC(N)=O)c(Br)n(Cc3ccccc3)c2cc1Cl [Example 89, 2-Bromo-6-chloro-5-methoxy-1-(phenylmethyl)-H-indole-3-acetamide] | 0.12 ± 0.02 µM | – |
| NC(=O)Cc1c(Br)n(Cc2ccccc2)c2cc(Cl)c(O)cc12 [Example 90, 2-Bromo-6-chloro-5-hydroxy-1-(phenylmethyl)-H-indole-3-acetamide] | 0.09 ± 0.01 µM | – |
| NC(=O)Cc1cn(Cc2ccccc2)c2cc(Cl)c(OCCCP(=O)(O)O)cc12 [Example 92, 3-[4-[[3-(2-Amino-2-oxoethyl)-6-chloro-1-(phenylmethyl)-1H-indol-5-yl]oxy]propyl]phosphonic acid] | 0.014 ± 0.004 µM | – |
| C=CCc1c(O)ccc2c1c(CC(N)=O)c(CC)n2Cc1ccccc1 [Example 93, 4-Allyl-2-ethyl-5-hydroxy-1-(phenylmethyl)-1H-indole-acetamide] | – | 0.14 ± 0.04 µM |
| C=CCc1c(OCCCP(=O)(O)O)ccc2c1c(CC(N)=O)c(CC)n2Cc1ccccc1 [Example 94, [3-[[4-Allyl-3-(2-amino-2-oxoethyl)-2-ethyl-1-(phenylmethyl)-1H-indol-5-yl]oxy]propyl]phosphonic acid disodium salt] | 0.612 ± 0.065 µM | – |
| CCc1c(CC(N)=O)c2cc(OCc3ccccc3C(=O)OC)ccc2n1Cc1ccccc1 [Example 98, 2-[[[3-(2-Amino-2-oxoethyl)-2-ethyl-1-(phenylmethyl)-1H-indol-5-yl]oxy]methyl]benzoic acid methyl ester] | 1.15 ± 0.32 µM | – |
| CCc1c(CC(N)=O)c2cc(OCc3ccccc3C(=O)O)ccc2n1Cc1ccccc1 [Example 99, 2-[[[3-(2-Amino-2-oxoethyl)-2-ethyl-1-(phenylmethyl)-1H-indol-5-yl]oxy]methyl]benzoic acid] | 0.54 ± 0.18 µM | – |

Next, values leading:

| IC50 [1] | IC50 [2] | Compound |
| --- | --- | --- |
| 1.27 µM | – | CCOC(=O)CCCOc1ccc2c(c1)c(CC(N)=O)c(CC)n2Cc1ccccc1 [Example 57] |
| 0.074 µM | – | CCc1c(CC(N)=O)c2cc(OCCCC(=O)NN)ccc2n1Cc1ccccc1 [Example 59] |
| 0.016 ± 0.001 µM | – | CCc1c(CC(N)=O)c2cc(OCCCP(=O)(O)O)ccc2n1Cc1cccc(Cl)c1 [Example 64, [3-[[3-(2-Amino-2-oxoethyl)-1-[(3-chlorophenyl)methyl]-2-ethyl-1H-indol-5-yl]oxy]propyl]phosphonic acid] |
| 1.38 ± 0.52 µM | – | COc1ccc2c(c1)c(CC(N)=O)c(C)n2Cc1cccc(Cl)c1 [Example 69, 1-[(3-Chlorophenyl)methyl]-5-methoxy-2-methyl-1H-indole-3-acetamide] |
| 5.88 ± 1.17 µM | – | Cc1c(CC(N)=O)c2cc(O)ccc2n1Cc1cccc(Cl)c1 [Example 70, 1-[(3-Chlorophenyl)methyl]-5-hydroxy-2-methyl-1H-indole-3-acetamide] |
| 0.336 ± 0.023 µM | – | COc1ccc2c(c1)c(CC(N)=O)c(C1CC1)n2Cc1ccccc1 [Example 77, 2-Cyclopropyl-5-methoxy-1-(phenylmethyl)-1H-indole-3-acetamide] |
| – | 0.046 ± 0.006 µM | NC(=O)Cc1c(C2CC2)n(Cc2ccccc2)c2ccc(OCCCP(=O)(O)O)cc12 [Example 79, [3-[[3-(2-Amino-2-oxoethyl)-2-cyclopropyl-1-(phenylmethyl)-1H-indol-5-yl]oxy]propyl]phosphonic acid] |
| – | 0.2 ± 0.09 µM | NC(=O)Cc1cn(Cc2ccccc2)c2ccc(OCCCP(=O)(O)O)cc12 [Example 80, [3-[[3-(2-Amino-2-oxoethyl)-1-(phenylmethyl)-1H-indol-5-yl]oxy]propyl]phosphonic acid] |
| 0.15 ± 0.04 µM | – | NC(=O)Cc1cn(Cc2ccccc2)c2ccc(OCCCC(=O)O)cc12 [Example 83, 4-[[3-(2-Amino-2-oxoethyl)-1-(phenylmethyl)-1H-indol-5-yl]oxy]butanoic acid] |
| 0.195 ± 0.065 µM | – | Cc1c(CC(N)=O)c2cc(OCCCS(=O)(=O)O)ccc2n1Cc1ccccc1 [Example 84, 3-[4-[[3-(2-Amino-2-oxoethyl)-2-methyl-1-(phenylmethyl)-1H-indol-5-yl]oxy]propane]sulfonic acid] |
| – | 0.03 ± 0.006 µM | NC(=O)Cc1c(Br)n(Cc2ccccc2)c2ccc(OCCCP(=O)(O)O)cc12 [Example 88] |
| 1.01 ± 0.32 µM | – | Cc1c(CC(N)=O)c2cc(Oc3ccccc3)ccc2n1Cc1ccccc1 [Example 95, 2-Methyl-5-phenoxy-1-(phenylmethyl)-1H-indole-3-acetamide] |
| 0.62 ± 0.18 µM | – | COC(=O)c1ccccc1COc1ccc2c(c1)c(CC(N)=O)c(C)n2Cc1ccccc1 [Example 96, 2-[[[3-(2-Amino-2-oxoethyl)-2-methyl-1-(phenylmethyl)-1H-indol-5-yl]oxy]methyl]benzoic acid methyl ester] |
| – | 0.15 ± 0.01 µM | Cc1c(CC(N)=O)c2cc(OCc3ccccc3C(=O)O)ccc2n1Cc1ccccc1 [Example 97, 2-[[[3-(2-Amino-2-oxoethyl)-2-methyl-1-(phenylmethyl)-1H-indol-5-yl]oxy]methyl]benzoic acid] |
| 3.84 ± 1.32 µM | – | COC(=O)c1cccc(COc2ccc3c(c2)c(CC(N)=O)c(C)n3Cc2ccccc2)c1 [Example 100, 3-[[[3-(2-Amino-2-oxoethyl)-2-methyl-1-(phenylmethyl)-1H-indol-5-yl]oxy]methyl]benzoic acid methyl ester] |
| 1.89 ± 0.5 µM | – | Cc1c(CC(N)=O)c2cc(OCc3cccc(C(=O)O)c3)ccc2n1Cc1ccccc1 [Example 101, 3-[[[3-(2-Amino-2-oxoethyl)-2-methyl-1-(phenylmethyl)-1H-indol-5-yl]oxy]methyl]benzoic acid] |
